Assay results: patent US10189786B2, “Antibacterial compounds” (Duke University, priority 2013, dated 2019)
Converted amounts (≈) assume the structure as drawn.

Tests used:
Type in all cases: cell-based
N. gonorrhoeae H041 = test: Disk diffusion assay, N. gonorrhoeae H041; conditions: disc 6 mm; for zone of inhibition at 0.2 µg/disc / zone of inhibition at 2 µg/disc / zone of inhibition at 20 µg/disc: Neisseria gonorrhoeae, read-out: diameter of the growth inhibition, H041; for zone of inhibition at 0.2 µg/disc: H041, 0.2 μg per disc; for zone of inhibition at 2 µg/disc: H041, 2.0 μg per disc; for zone of inhibition at 20 µg/disc: H041, 20 μg per disc
Description: (§1) An assay was performed on two strains of Acinetobacter Baumannii: antibiotic susceptible strain (Sus. A.b. Isolate), and multidrug-resistant strains (MDR A.b. Isolate). […] Activity is measured as the diameter (in mm) of the growth inhibition.

P. aeruginosa PAO1 = test: MIC assay, P. aeruginosa PAO1
[1] = tested on: N. gonorrhoeae FA19 (a drug-sensitive strain); test: Disk diffusion assay, N. gonorrhoeae FA19; conditions: disc 6 mm; for zone of inhibition at 2 µg/disc / zone of inhibition at 20 µg/disc / zone of inhibition at 0.2 µg/disc: Neisseria gonorrhoeae, read-out: diameter of the growth inhibition, FA19
Description: as §1

[2] = tested on: N. gonorrhoeae F89 (high-level cefixime and ceftriaxone resistance); test: Disk diffusion assay, N. gonorrhoeae F89; conditions: disc 6 mm; for zone of inhibition at 0.2 µg/disc / zone of inhibition at 2 µg/disc / zone of inhibition at 20 µg/disc: Neisseria gonorrhoeae, read-out: diameter of the growth inhibition, F89
Description: as §1

E. coli W3110 = test: microbe, parasite or virus in culture; conditions: wild-type E. coli W3110, 22 hours at 37° C., MTT; for MIC: Escherichia coli, W3110, 22 h
[3] = tested on: N. gonorrhoeae 35/02 (drug-resistant strain); test: Disk diffusion assay, N. gonorrhoeae 35/02; conditions: disc 6 mm; for zone of inhibition at 0.2 µg/disc / zone of inhibition at 2 µg/disc / zone of inhibition at 20 µg/disc: Neisseria gonorrhoeae, read-out: diameter of the growth inhibition, 35/02
Description: as §1

Structure (SMILES) | zone of inhibition at 2 µg/disc ([1]; 2.0 μg per disc) | MIC (E. coli W3110) | zone of inhibition at 20 µg/disc ([1]; 20 μg per disc) | zone of inhibition at 0.2 µg/disc (N. gonorrhoeae H041) | zone of inhibition at 2 µg/disc (N. gonorrhoeae H041) | zone of inhibition at 20 µg/disc (N. gonorrhoeae H041) | zone of inhibition at 0.2 µg/disc ([1]; 0.2 μg per disc) | zone of inhibition at 0.2 µg/disc ([2]; 0.2 μg per disc) | zone of inhibition at 2 µg/disc ([2]; 2.0 μg per disc) | zone of inhibition at 20 µg/disc ([2]; 20 μg per disc) | zone of inhibition at 0.2 µg/disc ([3]; 0.2 μg per disc) | zone of inhibition at 2 µg/disc ([3]; 2.0 μg per disc) | zone of inhibition at 20 µg/disc ([3]; 20 μg per disc) | also measured
CC(NCCCc1ccc(-c2ccccc2)cc1)(C(=O)NO)C(C)(O)C(F)F.Cl (single isomer, unassigned) [Example 134] | – | – | – | – | – | – | – | – | – | – | – | – | – | diameter of the growth inhibition, H041 (N. gonorrhoeae H041; 0.2 μg per disc): 14 mm; diameter of the growth inhibition, H041 (N. gonorrhoeae H041; 2.0 μg per disc): 21 mm; diameter of the growth inhibition, H041 (N. gonorrhoeae H041; 20 μg per disc): 26 mm; MIC P. aeruginosa PAO1 (P. aeruginosa PAO1): 2.5 µg/mL; diameter of the growth inhibition, FA19 ([1]; 0.2 μg per disc): 14 mm; diameter of the growth inhibition, FA19 ([1]; 2.0 μg per disc): 24 mm; diameter of the growth inhibition, FA19 ([1]; 20 μg per disc): 30 mm; diameter of the growth inhibition, F89 ([2]; 0.2 μg per disc): 21 mm; diameter of the growth inhibition, F89 ([2]; 2.0 μg per disc): 28 mm; diameter of the growth inhibition, F89 ([2]; 20 μg per disc): 36 mm; MIC E. coli W3110 (E. coli W3110): 1.25 µg/mL; diameter of the growth inhibition, 35/02 ([3]; 0.2 μg per disc): 12 mm; diameter of the growth inhibition, 35/02 ([3]; 2.0 μg per disc): 23 mm; diameter of the growth inhibition, 35/02 ([3]; 20 μg per disc): 28 mm
CC(NCCc1ccc(-c2ccccc2)cc1)(C(=O)NO)C(C)(O)C(F)F (centres unmarked) [Example 12, 2-(2-(biphenyl-4-yl)ethylamino)-4,4-difluoro-N,3-dihydroxy-2,3-dimethylbutanamide] | < 19 mm | > 40 µg/mL | – | – | – | – | – | – | – | – | – | – | – | MIC (P. aeruginosa PAO1; Pseudomonas aeruginosa, PAO1, P. aeruginosa PAO1): > 40 µg/mL
CC(NCCc1ccc(-c2ccccc2)cc1)(C(=O)NO)C(C)(O)C(F)F.Cl (centres unmarked) [Example 136] | – | – | – | – | – | – | – | – | – | – | – | – | – | MIC P. aeruginosa PAO1 (P. aeruginosa PAO1): >40 µg/mL; MIC E. coli W3110 (E. coli W3110): >40 µg/mL
COc1ccc(-c2ccc(CCCN[C@H](C(=O)NO)[C@](C)(O)C(F)F)cc2)cc1 [Example 137] | – | 12 µg/mL (≈ 29.4 µM) | – | – | – | – | – | – | – | – | – | – | – | –
C[C@@](O)(C(F)F)[C@H](NCCCc1ccc(-c2ccc(CN3CCOCC3)cc2)cc1)C(=O)NO [Example 138] | – | 3 µg/mL (≈ 6.28 µM) | – | – | – | – | – | – | – | – | – | – | – | –
CC(O)(CF)C(C)(NCCCc1ccc(-c2ccccc2)cc1)C(=O)NO.Cl (centres unmarked) [Example 139] | – | – | – | – | – | – | – | – | – | – | – | – | – | diameter of the growth inhibition, H041 (N. gonorrhoeae H041; 0.2 μg per disc): 7 mm; diameter of the growth inhibition, H041 (N. gonorrhoeae H041; 2.0 μg per disc): 14 mm; diameter of the growth inhibition, H041 (N. gonorrhoeae H041; 20 μg per disc): 21 mm; diameter of the growth inhibition, FA19 ([1]; 0.2 μg per disc): 11 mm; diameter of the growth inhibition, FA19 ([1]; 2.0 μg per disc): 20 mm; diameter of the growth inhibition, FA19 ([1]; 20 μg per disc): 24 mm; diameter of the growth inhibition, F89 ([2]; 0.2 μg per disc): 11 mm; diameter of the growth inhibition, F89 ([2]; 2.0 μg per disc): 20 mm; diameter of the growth inhibition, F89 ([2]; 20 μg per disc): 28 mm; MIC E. coli W3110 (E. coli W3110): 50 µg/mL; diameter of the growth inhibition, 35/02 ([3]; 0.2 μg per disc): 7 mm; diameter of the growth inhibition, 35/02 ([3]; 2.0 μg per disc): 15 mm; diameter of the growth inhibition, 35/02 ([3]; 20 μg per disc): 22 mm
COc1ccc(-c2ccn(CCCNC(C)(C(=O)NO)C(C)(O)CF)c(=O)c2)cc1 (centres unmarked) [Example 140] | 13 mm | 100 µg/mL (≈ 237 µM) | 22 mm | – | – | – | – | – | – | – | – | – | – | –
C[C@@](O)(C(F)F)[C@H](NCc1ccc(-c2ccccc2)cc1O)C(=O)NO [Example 141] | 21 mm | 50 µg/mL (≈ 136 µM) | 28 mm | 0 mm | 15 mm | 22 mm | 12 mm | 10 mm | 22 mm | 30 mm | 7 mm | 16 mm | 25 mm | –
COc1ccc(-c2ccc(CN[C@H](C(=O)NO)[C@](C)(O)C(F)F)cc2)cc1 [Example 142] | 16 mm | 100 µg/mL (≈ 263 µM) | 21 mm | 0 mm | 8 mm | 17 mm | 0 mm | 0 mm | 16 mm | 24 mm | 0 mm | 11 mm | 20 mm | –
CN1CCN(Cc2ccc(-c3ccc(CCCN[C@H](C(=O)NO)[C@](C)(O)C(F)F)cc3)cc2)CC1 [Example 144] | 0 mm | 50 µg/mL (≈ 102 µM) | 0 mm | 0 mm | 0 mm | 0 mm | 0 mm | 0 mm | 0 mm | 0 mm | 0 mm | 0 mm | 0 mm | –
C[C@@](O)(C(F)F)[C@H](NCc1ccc(-c2ccc(OCCN3CCOCC3)cc2)cc1)C(=O)NO [Example 145] | 0 mm | 25 µg/mL (≈ 52.1 µM) | 14 mm | 0 mm | 7 mm | 11 mm | 0 mm | 0 mm | 7 mm | 21 mm | 0 mm | 0 mm | 12 mm | –
COc1cc(-c2ccccc2)ccc1CN[C@H](C(=O)NO)[C@](C)(O)C(F)F [Example 146] | 10 mm | – | 25 mm | 0 mm | 8 mm | 19 mm | 0 mm | 0 mm | 11 mm | 27 mm | 0 mm | 0 mm | 16 mm | –
C[C@@](O)(C(F)F)[C@H](NC/C=C/c1ccc(-c2ccccc2)cc1)C(=O)NO [Example 147] | 28 mm | – | 32 mm | 14 mm | 30 mm | 35 mm | 22 mm | 28 mm | 33 mm | 38 mm | 17 mm | 28 mm | 34 mm | –
CC(NCCCc1ccc(-c2ccccc2)cc1)(C(=O)NO)C(O)(CF)CF (centres unmarked) [Example 148] | 19 mm | – | 27 mm | 9 mm | 15 mm | 24 mm | 12 mm | 13 mm | 19 mm | 27 mm | 0 mm | 17 mm | 24 mm | –
C[C@@](O)(C(F)F)[C@H](NCc1ccc2cc(-c3ccccc3)ccc2c1)C(=O)NO [Example 149] | 22 mm | – | 26 mm | 10 mm | 24 mm | 27 mm | 15 mm | 19 mm | 24 mm | 30 mm | 11 mm | 22 mm | 25 mm | –
